# According to patent US4622417A, “L-aminodicarboxylic-(O-cycloalkyl)-L-aminocarboxylate alkyl ester sweeteners” (General Foods Corporation, priority 1984, dated 1986):
# Tested on: panel of tasters
# Assay: Sensory evaluation of sweetness: taste panel matches aqueous solutions of the compound to sucrose standard solutions (sucrose equivalency)
# Format: in vivo
# Details: for Sucrose Equivalent: aqueous solution
# Text: A taste procedure for determination of sweetness merely involves the determination of sucrose equivalency. Sucrose equivalence for sweeteners are readily determined. The amount of a sweetener that is equivalent to a given weight percent sucrose can be determined by having a panel of tasters taste solutions of a sweetener at known concentrations and match its sweetness to standard solutions of sucrose. The following sensory evaluations were obtained by a panel of experts using known weight percent aqueous solutions of the above compound matched to sucrose standard solutions as previously described.
# [1] = 0.005% concentration of compound
# [2] = 0.01% concentration of compound
# [3] = 0.02% concentration of compound
# [4] = 0.025% concentration of compound
# [5] = 0.05% concentration of compound
# [6] = 0.04% concentration of compound
# [7] = 0.0025% concentration of compound
Compound,Sweetness ratio (Compound:Sucrose) [1],Sucrose Equivalent [1] [%],Sweetness ratio (Compound:Sucrose) [2],Sucrose Equivalent [2] [%],Sweetness ratio (Compound:Sucrose) [4],Sucrose Equivalent [4] [%],other results
"COC(=O)[C@H](CO[C@@]1(C)CCCC[C@H]1C)NC(=O)[C@@H](N)CC(=O)O (single isomer, unassigned) [Example 4 CIS ISOMER, L-aspartyl-O-(cis-1,2-dimethylcyclohexyl)-L-serine methyl ester]",400,2.0,400,4.0,,,"Sucrose Equivalent (0.005% concentration of compound, listed as Cis-1,2-dimethylcyclohexyl): 2%; Sucrose Equivalent (0.01% concentration of compound, listed as Cis-1,2-dimethylcyclohexyl): 4%; Sweetness ratio (Compound:Sucrose) [3]: 350; Sucrose Equivalent [3]: 7.0%; Sucrose Equivalent (0.02% concentration of compound, listed as Cis-1,2-dimethylcyclohexyl): 7%"
"COC(=O)[C@H](CO[C@]1(C)CCCC[C@H]1C)NC(=O)[C@@H](N)CC(=O)O (single isomer, unassigned) [Example 4 TRANS ISOMER, L-aspartyl-O-(trans-1,2-dimethylcyclohexyl)-L-serine methyl ester]",300,1.5,300,3.0,,,"Sucrose Equivalent (0.01% concentration of compound, listed as trans-1,2-dimethylcyclohexyl): 3%; Sweetness ratio (Compound:Sucrose) [3]: 250; Sucrose Equivalent [3]: 5.0%; Sucrose Equivalent (0.02% concentration of compound, listed as trans-1,2-dimethylcyclohexyl): 5%"
"COC(=O)[C@H](COC1CCCC1(C)C)NC(=O)[C@@H](N)CC(=O)O (stereo partly drawn) [2,2-dimethylcyclopentyl, α-L-aspartyl-O-(2,2-dimethylcyclopentyl)-L-serine methyl ester]",600,3,530,5.3,360,9,
"COC(=O)[C@H](COCCC12C=CC(CC1)C2)NC(=O)[C@@H](N)CC(=O)O (stereo partly drawn) [2-(4-norbornenyl)ethyl, α-L-Aspartyl-O-[2-(4-norbornenyl)ethyl]-L-serine methyl ester]",,,,,,,Sweetness ratio (Compound:Sucrose) [5]: 117; Sucrose Equivalent [5]: 5.8%
"COC(=O)[C@H](COC1CCCCC1C)NC(=O)[C@@H](N)CC(=O)O (stereo partly drawn) [2-cis-methylcyclohexyl, α-L-aspartyl-O-(2-methylcyclohexyl)-L-serine methyl ester]",360,1.8,320,3.2,240,6,
"COC(=O)[C@H](COCCC1CC2CCC1C2)NC(=O)[C@@H](N)CC(=O)O (stereo partly drawn) [2-norbornylethyl, α-L-Aspartyl-O-2-norbornylethyl-L-serine methyl ester]",,,,,,,Sweetness ratio (Compound:Sucrose) [6]: 105; Sucrose Equivalent [6]: 4.2%
"COC(=O)[C@H](COC1(C)CCCCC1)NC(=O)[C@@H](N)CC(=O)O [Example 2, L-aspartyl-O-(1-methylcyclohexyl)-L-serine methyl ester]",400,2,450,4.5,340,8.5,
"COC(=O)[C@H](COC1(C)CCC1)NC(=O)[C@@H](N)CC(=O)O [Example 3, L-aspartyl-O-(1-methylcyclobutyl)-L-serine methyl ester]",,,200,2,,,Sweetness ratio (Compound:Sucrose) [5]: 160; Sucrose Equivalent [5]: 8%
"CCC1(OC[C@H](NC(=O)[C@@H](N)CC(=O)O)C(=O)OC)CCCC1 [Example 5, L-aspartyl-O-(1-ethylcyclopentyl)-L-serine methyl ester]",400,2,400,4,,,Sweetness ratio (Compound:Sucrose) [3]: 300; Sucrose Equivalent [3]: 6%
"COC(=O)[C@H](COC1(C)CC=CCC1)NC(=O)[C@@H](N)CC(=O)O (stereo partly drawn) [Example 7, L-aspartyl-O-(1-methylcyclohex-3-enyl)-L-serine methyl ester]",400,2,250,2.5,160,4,
"COC(=O)[C@H](COC(C)(C)C1CC=C(C)CC1)NC(=O)[C@@H](N)CC(=O)O (stereo partly drawn) [Example 8C, α-L-aspartyl-O-[1,1-dimethyl-1-(4-methylcyclohex-3-enyl)methyl]-L-serine methyl ester]",,,220,2.2,208,5.2,
"COC(=O)[C@H](COC(C)(C)C1CCC(C)CC1)NC(=O)[C@@H](N)CC(=O)O (stereo partly drawn) [Example 8D, α-L-aspartyl-O-[1,1-dimethyl-1-(4-methylcyclohexyl)methyl]-L-serine methyl ester]",,,,,240,6,"Sucrose Equivalent (Sensory Evaluations, Example 8) (0.01% concentration): 2.2; Sucrose Equivalent (Sensory Evaluations, Example 8) (0.025% concentration): 5.2; Sweetness ratio (Compound:Sucrose) [5]: 220; Sucrose Equivalent [5]: 11%"
"COC(=O)[C@H](COC1C(C)(C)CCC1(C)C)NC(=O)[C@@H](N)CC(=O)O [Example 10, α-L-Aspartyl-O-2,2,5,5-tetramethylcyclopentyl-L-serine methyl ester]",1000,5,800,8,,,Sweetness ratio (Compound:Sucrose) [7]: 1200; Sucrose Equivalent [7]: 3%
"COC(=O)[C@H](COC1CC2CCC1(C)C2(C)C)NC(=O)[C@@H](N)CC(=O)O (stereo partly drawn) [Example 11, α-L-Aspartyl-O-1-bornyl-L-serine methyl ester]",200,1,250,2.5,180,4.5,
"COC(=O)[C@H](COC1(C)CCCCCC1)NC(=O)[C@@H](N)CC(=O)O [Example 12, α-L-aspartyl-O-(1-methyl-cycloheptyl)-L-serine methyl ester]",,,200,2,,,Sweetness ratio (Compound:Sucrose) [5]: 120; Sucrose Equivalent [5]: 6%
"COC(=O)[C@H](COC1(C)CCCC1)NC(=O)[C@@H](N)CC(=O)O [I, L-aspartyl-O-(1-methylcyclopentyl)-L-serine methyl ester]",500,2.5,500,5,400,10,Sucrose Equivalent [5]: 12%; temporal and sensory qualities (determined by the panel of experts): excellent temporal and sensory qualities
"COC(=O)[C@H](COC1CCCCC1)NC(=O)[C@@H](N)CC(=O)O [cyclohexyl, α-L-aspartyl-O-(cyclohexyl)-L-serine methyl ester]",,,120,1.2,127,3.2,
"COC(=O)[C@H](COC1CCCC1)NC(=O)[C@@H](N)CC(=O)O [cyclopentyl, α-L-aspartyl-O-(cyclopentyl)-L-serine methyl ester]",300,1.5,230,2.3,180,4.5,
"COC(=O)[C@H](COC1CCCC1C)NC(=O)[C@@H](N)CC(=O)O (stereo partly drawn) [trans-2-methylcyclopentyl, L-aspartyl-[O-(2-methylcyclopentyl)]-L-serine methyl ester]",,,300,3,212,5.3,
CCOC(=O)[C@H](COC1(C)CCCC1)NC(=O)[C@@H](N)CC(=O)O [α-L-Aspartyl-O-(1-methylcyclopentyl)-L-serine ethyl ester],,,,,,,sweetness equivalent (in vivo): 150 x sucrose
